Source: PubChem BioAssay (NCI)
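48-hour exposure; five concentrations; linearly interpolated endpoints. GI50 is the concentration that inhibits growth by half. Definition used: TGI = concentration required for complete inhibition of growth.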

Columns and labels:
Assay in all cases: inhibition of tumour cell growth, NCI panel, 48 h
CCRF-CEM leukemia = test system: CCRF-CEM leukemia
HCT-116 colon = test system: HCT-116 colon
MALME-3M melanoma = test system: MALME-3M melanoma
OVCAR-4 ovarian = test system: OVCAR-4 ovarian
RXF 393 renal = test system: RXF 393 renal
SF-539 CNS = test system: SF-539 CNS
SR leukemia = test system: SR leukemia
UACC-257 melanoma = test system: UACC-257 melanoma
UACC-62 melanoma = test system: UACC-62 melanoma
UO-31 renal = test system: UO-31 renal

Row | SMILES | GI50 (CCRF-CEM leukemia) | TGI (CCRF-CEM leukemia) | GI50 (HCT-116 colon) | TGI (HCT-116 colon) | GI50 (MALME-3M melanoma) | TGI (MALME-3M melanoma) | GI50 (OVCAR-4 ovarian) | TGI (OVCAR-4 ovarian) | GI50 (RXF 393 renal) | TGI (RXF 393 renal) | GI50 (SF-539 CNS) | TGI (SF-539 CNS) | GI50 (SR leukemia) | TGI (SR leukemia) | GI50 (UACC-257 melanoma) | GI50 (UACC-62 melanoma) | TGI (UACC-62 melanoma) | GI50 (UO-31 renal) | TGI (UO-31 renal) | TGI (UACC-257 melanoma)
1 | CCN(CC)c1ccc(/C=N\NC(=O)c2cccc(Nc3ccnc(C(F)(F)F)c3)c2)c(O)c1 | 0.084 µM | 1.27 µM | 0.121 µM | 31 µM | 0.348 µM | 4.32 µM | 0.118 µM | > 100 µM | 0.216 µM | 1.9 µM | 0.279 µM | 1.45 µM | 0.0967 µM | 0.736 µM | 0.373 µM | 0.25 µM | 1.68 µM | 0.202 µM | 2.69 µM | –
2 | N#CC(/C(=N\NC(N)=S)C(=O)NC1C2CC3CC(C2)CC1C3)c1ccc(Cl)cc1 (centres undefined) | – | > 100 µM | – | > 100 µM | – | > 100 µM | – | > 100 µM | – | > 100 µM | – | > 100 µM | – | > 100 µM | – | – | > 100 µM | – | > 100 µM | > 100 µM
3 | CC(C)=CCC[C@](C)(O)[C@H]1CC[C@]2(C)[C@@H]1CC[C@@H]1[C@@]3(C)CC[C@H](OC(=O)CCC(=O)O)C(C)(C)[C@@H]3CC[C@]12C | 12.1 µM | 58 µM | 56.5 µM | > 100 µM | 16.8 µM | 38.6 µM | 27.6 µM | > 100 µM | 17.4 µM | 85 µM | 19.7 µM | 57.8 µM | 19.4 µM | 56.5 µM | 36.9 µM | 15 µM | 32.5 µM | 13.7 µM | 28 µM | > 100 µM
4 | CN1C=CN(Cc2ccc(-c3ccccn3)nc2)[CH-]1.CN1C=CN(Cc2ccc(-c3ccccn3)nc2)[CH-]1.[Au+3] | 0.0834 µM | 13.4 µM | 2.4 µM | 10.9 µM | 2.21 µM | 10.5 µM | 0.769 µM | 14.1 µM | 1.88 µM | 17.8 µM | 2.34 µM | 10.3 µM | 0.372 µM | 42.7 µM | 1.52 µM | 1.4 µM | 6.67 µM | 22 µM | > 73.6 µM | 7.47 µM
5 | Cc1cc(I)cc(CN(C)CCCCN2CCCC2)c1O | 31.3 µM | > 100 µM | 13.1 µM | 40 µM | 19.7 µM | 36.1 µM | 41.6 µM | > 100 µM | 11.8 µM | 31.8 µM | 14.7 µM | 28.7 µM | 11.5 µM | 29.4 µM | 16.6 µM | 4.19 µM | 15.7 µM | 28.2 µM | > 100 µM | 32.8 µM
6 | COC(=N)/C(=C1\OC(N)=C(c2ccc(Cl)cc2)C1=O)c1ccc(Cl)cc1 | – | > 100 µM | – | > 100 µM | – | > 100 µM | – | > 100 µM | – | > 100 µM | – | > 100 µM | – | > 100 µM | – | – | > 100 µM | – | > 100 µM | > 100 µM
7 | C/C(=N\NC(=S)Nc1ccc([N+](=O)[O-])cc1S(=O)(=O)O)c1ccccn1 | – | > 100 µM | – | > 100 µM | – | > 100 µM | – | 95.3 µM | – | 86.1 µM | – | > 100 µM | – | 75.6 µM | – | – | > 100 µM | – | > 100 µM | > 100 µM
8 | Fc1cc(Nc2ccc3c(OCCCN4CCOCC4)cccc3n2)ccc1Cl | 2.48 µM | 8.66 µM | 2.76 µM | 7.16 µM | 1.91 µM | 4.36 µM | 3.75 µM | 88.5 µM | 2.16 µM | 4.74 µM | 1.95 µM | 4.01 µM | 1.69 µM | 6.64 µM | 2.18 µM | 2.32 µM | 5.61 µM | 1.65 µM | 4.11 µM | 4.25 µM
9 | Cc1cc(C#Cc2ccccc2)ccc1-n1c(/C=C/c2ccc(O)cc2)nc2ccccc2c1=O | 3.26 µM | > 100 µM | 2.66 µM | 11 µM | 2.12 µM | 7.31 µM | 3.17 µM | 22.7 µM | 3.51 µM | > 100 µM | 5.65 µM | > 100 µM | 2.45 µM | 29 µM | 4.18 µM | 3.48 µM | 21.7 µM | 2.06 µM | 7.65 µM | 56.3 µM
